Common to all, as to type: physicochemical
Data set [1] in a line: Extraction capability from aqueous 3 mol/L nitric acid. To be noted: aqueous [HNO3] 3 mol/L spiked with 152Eu(III) and 241Am(III). On the procedure:
The organic solutions of the extractant compounds to be tested were prepared dissolving an amount of the extractant compound in the solvent considered in each case to reach the ligand concentration of 0.1 mol/L. The solvents considered were 1-octanol, n-heptane, n-dodecane, the industrial solvent "TPH" (hydrogenated tetrapropylene) used in the "La Hague" reprocessing plant of the COGEMA company (Compagnie générale des matières nucléaires) and different mixtures "TPH/1-octanol or n-dodecane/1-octanol".
Once said solution was obtained, its equilibration was carried out. To that end, 800 µL of the organic solution of the compound to be studied were contacted with 800 µL of nitric acid of 3 mol/L concentration and it was stirred vigorously in an oscillating shaker for 5 minutes. The phases were separated by centrifugation at 5000 rpm. 800 µL of the said organic phase were again contacted with 800 µL of nitric acid of 3 mol/L concentration for another 5 minutes of vigorous shaking. The phases were separated by centrifugation, the organic phase being considered to be equilibrated.
(§1) 600 µL of the organic phase of the compound to be studied, previously equilibrated, were contacted with 600 µL of aqueous phase consisting of a 3 mol/L nitric acid solution spiked with 600 Bq of ^152Eu and 600 Bq of ^241Am. It was stirred vigorously by means of an oscillating shaker for 30 minutes and the phases were separated by centrifugation at 5000 rpm. 400 µL were taken from each of the phases for determining the concentration of the radionuclides ^152Eu and ^241Am. This determination was carried out by means of the high energy gamma spectrometry technique with a high-purity Ge detector (Canberra Inc.), using the 122 keV line for the determination of ^152Eu concentration and the 59.5 keV line for the determination of ^241Am concentration. The distribution coefficient was calculated by relating the concentration of each of the radionuclides in the organic phase and in the aqueous phase, according to the expression: DM = ([M]org)/([M]aq) [formula]
(§2) The distribution coefficients and the selectivity factor of each of them were determined as indicated in sections A) to C).

Data set [2] is described as follows: Eu/Am selectivity factor in extraction from 3 mol/L nitric acid. To be noted: aqueous [HNO3] 3 mol/L. The procedure: as §1
The Eu/Am selectivity factor was calculated by relating the corresponding distribution coefficients of Eu with those of Am in the same experimental conditions: SFEu/Am = DEu /DAm [formula]
as §2

The nature of data set [3]: Third phase formation in extraction from simulated HLLW. To be noted: HLLW without oxalic acid and without HEDTA; TODGA 0.2 mol/L. The procedure:
[…] Extraction experiments were carried out with said simulated HLLW in a pure form and also adding oxalic acid and HEDTA to it. These complexing agents have shown to be effective in the DIAMEX process for the complexing of Mo, Zr (H2C2O4) and Pd (HEDTA).
The actinides Am (III), Cm (III) and Cf (III) as well as trivalent lanthanides were extracted with high distribution coefficients from HLLW with a 3.2 mol/L nitric acid concentration. […] As expected, Zr and Pd are not co-extracted when complexing agents are added to HLLW.

Data set [4] in a line: Radiolytic stability, extraction capability after irradiation. To be noted: after 1000 kGy; irradiated dissolved in n-dodecane/1-octanol (95:5)%vol, equilibrated with 3 mol/L nitric acid. On the procedure: The tests of stability against irradiation were carried out in the NAYADE facility at CIEMAT site, with external ^60Co sources with an approximate activity of 5000 Ci, with a homogeneous irradiation flux. The dose rate applied in all the experiments was 4 kGy/h and integrated doses of 250 kGy, 500 kGy, 750 kGy and 1000 kGy were considered. The irradiation device consists of a metal cylinder which is introduced in a rack wherein the ^60CO sources are placed radially, such that the irradiation is homogeneous. The irradiation process is carried out submersing the device in a pool of water with a depth of 4 meters.
Irradiation tests of the solid compound (in the absence of solvent) and of the compound dissolved in the "n-dodecane/1-octanol (95:5)%vol" mixture, equilibrated with 3 mol/L nitric acid, were carried out. The organic solutions were prepared and equilibrated as detailed in the previous sections A) and B).
Once each programmed integrated dose was reached, the extraction capability of the organic samples was evaluated as detailed in section C).
The irradiation of compound 4 in solid form (in the absence of solvent) and dissolved at a 0.1 mol/L concentration in the "n-dodecane/1-octanol 1 (95:5)%vol" mixture, equilibrated with 3 mol/L nitric acid, was carried out. The applied dose rate was 4 kGy/h and the considered integrated doses were 250 kGy, 500 kGy, 750 kGy and 1000 kGy. After each integrated dose, the extraction capability of Am(III) and Eu(III) was evaluated as described in section C.
The considered integrated doses in this experiment were 500 kGy and 1000 kGy at a dose rate of 4 kGy/h.

Where [5] appears, read: 0.1 mol/L in TPH/1-octanol (50:50)%vol.

As for “2-Dibutylcarbamoylmethoxy-N-[3-[(2-dibutylcarbamoyl-methoxy-acetylamino)methyl]benzyl]acetamide [Compound 3]”, in data set [1] (setting [5]), the DAm is reported as 99 and the DEu stood at 183. The molecule further returned an SFEu/Am in data set [2] (setting [5]) of 1.9.

Regarding `CCCCN(CCCC)C(=O)COCC(=O)NCCCNC(=O)c1cc(C(C)(C)C)cc2c1Oc1c(C(=O)NCCCNC(=O)COCC(=O)N(CCCC)CCCC)cc(C(C)(C)C)cc1C2(C)C` [Compound 19, 2,7-di-tert-butyl-9,9-dimethyl-9H-xanthen-4,5-dicarboxylic acid bis-[[3-(2-dibutylcarbamoylmethoxy-acetylamino)propyl]amide]], in data set [1] (setting [5]), the DAm amounted to 65 and the DEu turned out to be 318. In data set [2] (setting [5]), the SFEu/Am worked out at 4.9.

Regarding `CCCCCCCCN(CCCCCCCC)C(=O)COCC(=O)N(CCCCCCCC)CCCCCCCC` [TODGA, N,N,N',N'-tetraoctyl diglycolamide, reference compound], in data set [3], the third phase result is reported as “a third phase was observed”. Further, in data set [4], the DAm was 121 and the DEu stood at 458.

In data set [1] (setting [5]), “2-Dibutylcarbamoylmethoxy-N-[6-(2-dibutylcarbamoyl-methoxyacetylamino)hexyl]acetamide [Compound 14]” gave a DAm of 119 and a DEu of 215. In data set [2] (setting [5]), this molecule yielded an SFEu/Am of 1.8.

As to `CCCCCC(C)Oc1cc(CNC(=O)COCC(=O)N(CCCC)CCCC)cc(CNC(=O)COCC(=O)N(CCCC)CCCC)c1` (stereo not drawn) [Compound 10, 2-Di-butylcarbamoylmethoxy-N-[3-[(2-dibutyl-carbamoyl-methoxyacetylamino)methyl]-5-(1-methylhexyloxy)benzyl]-acetamide], in data set [1] (setting [5]), the DAm amounted to 41 and the DEu is 276. The molecule also displayed an SFEu/Am in data set [2] (setting [5]) of 6.7.

For the molecule `CC(C)CCN(CCC(C)C)C(=O)COCC(=O)NCc1cccc(CNC(=O)COCC(=O)N(CCC(C)C)CCC(C)C)c1` [Compound 6, 2-[[Bis(3-methylbutyl)carbamoyl]methoxy]-N-[3-[(2-[[bis-(3-methylbutyl)carbamoyl]methoxy]acetylamino)methyl]-benzyl]-acetamide], in data set [1] (setting [5]), the DAm worked out at 82 and the DEu was found to be 251. Moreover, the SFEu/Am in data set [2] (setting [5]) was found to be 3.1.

In data set [1] (setting [5]), `CCCCCCCCN(C)C(=O)COCC(=O)NCc1cccc(CNC(=O)COCC(=O)N(C)CCCCCCCC)c1` [Compound 5, 2-[(Methyloctylcarbamoyl)methoxy]-N-[3-[(2-[(methyl-octyl-carbamoyl)methoxy]acetylamino]methyl]benzyl]-acetamide] came in with a DAm of 83 and a DEu of 309. This molecule yielded an SFEu/Am in data set [2] (setting [5]) of 3.7.

In data set [1] (setting [5]), `CCCCCCCCCCCCOc1cc(CNC(=O)COCC(=O)N(CCCC)CCCC)cc(CNC(=O)COCC(=O)N(CCCC)CCCC)c1` [Compound 11, 2-Di-butylcarbamoylmethoxy-N-[3-[(2-dibutyl-carbamoyl-methoxyacetylamino)methyl]-5-dodecyloxybenzyl]acetamide] registered a DAm of 88 and a DEu of 335. In data set [2] (setting [5]), this molecule returned an SFEu/Am of 3.8.

Consider `CCCCN(CCCC)C(=O)COCC(=O)N(CCCC)CCCC` [TBDGA, N,N,N',N'-tetrabutyl-3-oxapentane-diamide, reference compound], for which, in data set [1] (setting [5]), the DAm came to 476 and the DEu was determined as 680. For the same molecule, the SFEu/Am in data set [2] (setting [5]) turned out to be 1.4.

In data set [1] (0.1 mol/L in 1-octanol), “2-Dioctylcarbamoylmethoxy-N-[6-(2-dioctylcarbamoyl-methoxyacetylamino)hexyl]acetamide [Compound 15]” displayed a DAm of 25 and a DEu of 98. This molecule also registered an SFEu/Am in data set [2] (0.1 mol/L in 1-octanol) of 3.9.

In data set [1] (setting [5]), `CCCCCCCCN(CCCCCCCC)C(=O)COCC(=O)N(C)C` [DMDODGA, N,N-dimethyl-N',N'-dioctyl-oxapentane-diamide, reference compound] registered a DAm of 477 and a DEu of 789. Further, the SFEu/Am in data set [2] (setting [5]) came to 1.7.

On to `CCCCCCCCN(CCCCCCCC)C(=O)COCC(=O)NCc1ccc(CNC(=O)COCC(=O)N(CCCCCCCC)CCCCCCCC)cc1` [Compound 8], for which, in data set [1] (setting [5]), the DAm was 67 and the DEu stood at 276. Moreover, the SFEu/Am in data set [2] (setting [5]) turned out to be 4.1.
